In PMC4150853 (Biochemical and biophysical research communications, 2014):

Tests used:
[1] = biological target: T1, α2A adrenergic receptor (α2AAR) (Mus musculus, UniProt Q01338); assay: competition radioligand binding with 3H-RX821002
T1 sequence (Q01338 1-465): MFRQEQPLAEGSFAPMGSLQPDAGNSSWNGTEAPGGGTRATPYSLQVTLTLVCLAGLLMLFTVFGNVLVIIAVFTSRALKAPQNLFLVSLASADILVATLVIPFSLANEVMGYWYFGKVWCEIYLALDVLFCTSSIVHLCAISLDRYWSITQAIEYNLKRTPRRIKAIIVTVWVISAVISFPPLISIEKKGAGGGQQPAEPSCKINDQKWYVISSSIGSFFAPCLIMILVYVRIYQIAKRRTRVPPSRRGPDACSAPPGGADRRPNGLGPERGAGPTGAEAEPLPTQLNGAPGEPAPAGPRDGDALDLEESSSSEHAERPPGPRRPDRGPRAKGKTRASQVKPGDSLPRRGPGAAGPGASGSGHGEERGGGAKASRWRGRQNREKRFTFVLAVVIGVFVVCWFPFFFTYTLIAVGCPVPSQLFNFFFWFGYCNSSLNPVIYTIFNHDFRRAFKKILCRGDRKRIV

[2] = biological target: T1, α2A adrenergic receptor (α2AAR); assay: […]GTPγS binding, […] NE, nearly two-fold induction; type: cell-based
[3] = biological target: T1, α2A adrenergic receptor (α2AAR); assay: radioligand of the competition binding assay

Row | SMILES | Ki [1] | also measured
1 | CN(C)CCC=C1c2ccccc2CCc2ccccc21 [AMI, amitriptyline] | 0.33 µM | 
2 | CN(C)CCC[C@@]1(c2ccc(F)cc2)OCc2cc(C#N)ccc21 [ESC, escitalopram] | 79.4 µM | 
3 | CN(C)CCCN1c2ccccc2CCc2ccccc21 [IMI, imipramine] | 5.07 µM | 
4 | NC[C@H](O)c1ccc(O)c(O)c1 [NE, norepinephrine] |  | [35S]GTPγS binding, 10 μM NE, nearly two-fold induction [2]: G protein coupling response by α2AARs is seen only in response the endogenous agonist NE, which drives a nearly two-fold induction
5 | COC1(C2=NCCN2)COc2ccccc2O1 (centres unmarked) [RX821002] |  | radioligand of the competition binding assay [3]: the radioligand was a ^3H-labeled form of the α2AR antagonist RX821002
